Data on 2 compounds can be found in article PMC7815647 (Biochemistry and Biophysics Reports, 2021).

The Km is the concentration of substrate that gives half-maximal velocity.

SMILES strings stand for the structures.

The subject of the assay is Nit11764. To be noted: 40 mM Na-K phosphate pH 7.0.

Turning to `N#C/C=C/c1ccccc1` [Cinnamonitrile], the Km is 1.27 ± 0.4 mM.

On to `N#C/C=C/C#N` [Fumaronitrile], for which the Km worked out at 8.57 ± 0.8 mM.
